The record followed here is patent EP0375451A2, “Compounds having a renin-inhibiting activity” (BEECHAM GROUP PLC, priority 1988, dated 1990).

Where a name gives a salt, the structure may show the parent alone.

One assay concerns the target T1, human renin (Homo sapiens, UniProt P00797).
T1 construct: from tissue; host or cells: human plasma from blood of healthy volunteers
T1 sequence (P00797 67-406): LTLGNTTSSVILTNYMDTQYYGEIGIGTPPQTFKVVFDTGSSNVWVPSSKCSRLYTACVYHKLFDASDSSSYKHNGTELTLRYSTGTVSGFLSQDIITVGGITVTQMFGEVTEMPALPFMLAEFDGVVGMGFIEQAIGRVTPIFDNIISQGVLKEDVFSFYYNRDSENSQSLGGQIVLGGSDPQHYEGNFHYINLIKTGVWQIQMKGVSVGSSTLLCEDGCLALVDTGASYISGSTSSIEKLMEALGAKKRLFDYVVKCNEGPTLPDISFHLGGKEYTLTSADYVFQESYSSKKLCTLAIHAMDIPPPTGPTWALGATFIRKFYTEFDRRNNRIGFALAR
Nature of the assay: In vitro human renin inhibition (renin activity in human plasma, angiotensin I radioimmunoassay). Type of assay: biochemical.
Conditions: not given
How it is done: In vitro human renin inhibition
Renin inhibitory activity was estimated as the percentage change in renin activity in human plasma in the presence and absence of compound. The source of plasma was blood taken from healthy volunteers. Renin activity was defined by the difference in angiotensin I levels between two halves of a sample, one incubated at 37^o and the other at 4^o for 2h. Angiotensin I levels were measured using a ¹²⁵I- angiotensin I radioimmunoassay kit (NEN/DuPont, Stevenage). Results were calculated as the mean of at least two, duplicate determinations and IC₅₀ values were calculated by linear regression analysis of at least three concentrations of compound.
As for `CC(=O)NCCNC(=O)C[C@H](O)[C@H](CC1CCCCC1)NC(=O)[C@H](CC(C)C)NC(=O)[C@H](Cc1ccccc1)NC(=O)CC1CS(=O)(=O)c2ccccc21` (stereo partly shown) [Example E6], the IC50 came to 87 nM.

As for `CC(C)C[C@H](NC(=O)[C@H](Cc1ccccc1)NC(=O)CCn1c(=O)[nH]c2ccccc21)C(=O)N[C@@H](CC1CCCCC1)[C@@H](O)CC(=O)NCCCn1ccnc1` [Example E41, (2,3-Dihydro-2-oxo-1H-benzimidazole-1-propanoyl)-Phe-Leu-ACHPA 3-(1-imidazolyl)propylamide .0.5CHCl₃], the IC50 is 43 nM.

Still in this assay, the particulars now being: human plasma from healthy volunteers; angiotensin I difference between 37° and 4° incubation for 2h; linear regression of at least three concentrations; read-out: IC₅₀.
In the case of `CC(C)C[C@H](NC(=O)[C@H](Cc1ccccc1)NC(=O)CC1CS(=O)(=O)c2ccccc21)C(=O)N[C@@H](CC1CCCCC1)[C@@H](O)CC(=O)NCCCn1ccnc1` (stereo partly drawn) [El (a), (2,3-Dihydro-1,1-dioxobenzothiophene-3-yl)acetyl-Phe-Leu-ACHPA 3-(1-imidazolyl)propylamide .H₂O], the IC50 stood at 15 nM.

With `CC(C)C[C@H](NC(=O)[C@H](Cc1ccccc1)NC(=O)CC1CS(=O)(=O)c2ccccc21)C(=O)N[C@@H](CC1CCCCC1)[C@@H](O)CC(=O)NCCCN1CCCC1=O` (stereo partly drawn) [Example E3, (2,3-Dihydro-1,1-dioxobenzothiophene-3-yl)acetyl-Phe-Leu-ACHPA 3-(2-oxopyrrolidin-1-yl) propylamide], the IC50 stood at 27 nM.

With `CC(C)C[C@H](NC(=O)[C@H](Cc1ccccc1)NC(=O)CC1COc2ccc(CN)cc21)C(=O)N[C@@H](CC1CCCCC1)[C@@H](O)CC(=O)NCCCn1ccnc1` (stereo partly drawn) [Example E13, (5-(Aminomethyl)-2,3-dihydrobenzofuran-3-yl)acetyl-Phe-Leu-ACHPA 3-(1-imidazolyl)propylamide .2(CF₃CO₂H).H₂O], the IC50 is 32 nM.

In the case of `CC(C)C[C@H](NC(=O)[C@H](Cc1ccccc1)NC(=O)CC1CS(=O)(=O)c2ccccc21)C(=O)N[C@@H](CC1CCCCC1)[C@@H](O)CC(=O)NCCCCn1ccnc1` (stereo partly drawn) [Example E14, (2,3-Dihydro-1,1-dioxobenzothiophene-3-yl)acetyl-Phe-Leu-ACHPA 4-(1-imidazolyl)butylamide .HCl.2H₂O], the IC50 was 37 nM.

Regarding `COC(=O)CCCCNC(=O)C[C@H](O)[C@H](CC1CCCCC1)NC(=O)[C@H](CC(C)C)NC(=O)[C@H](Cc1ccccc1)NC(=O)CC1CS(=O)(=O)c2ccccc21` (stereo partly drawn) [Example E18, (2,3-Dihydro-1,1-dioxobenzothiophene-3-yl)acetyl-Phe-Leu-ACHPA-NH(CH₂)CO₂Me.0.5H₂O], the IC50 was 30 nM.

Turning to `CC(C)C[C@H](NC(=O)[C@H](Cc1ccccc1)NC(=O)CC1CS(=O)(=O)c2ccccc21)C(=O)N[C@@H](CC1CCCCC1)[C@@H](O)CC(=O)NCCCCC(=O)O` (stereo partly drawn) [Example E19, (2,3-Dihydro-1,1-dioxobenzothiophene-3-yl)acetyl-Phe-Leu-ACHPA-NH(CH₂)₄CO₂H], the IC50 was 45 nM.

For `CC(C)C[C@H](NC(=O)[C@H](Cc1ccccc1)NC(=O)CC1CS(=O)(=O)c2ccccc21)C(=O)N[C@@H](CC1CCCCC1)[C@@H](O)CC(=O)NCCN1CCN(C)CC1` (stereo partly drawn) [Example E22, (2,3-Dihydro-1,1-dioxobenzothiophene-3-yl)acetyl-Phe-Leu-ACHPA 2-(4-methylpiperazin-1-yl)ethylamide .2.5H₂O], the IC50 was found to be 95 nM.

Take `CC(C)C[C@H](NC(=O)[C@H](Cc1ccccc1)NC(=O)CCCC1Cc2ccc(N)cc2S1(=O)=O)C(=O)N[C@@H](CC1CCCCC1)[C@@H](O)CC(=O)NCCCn1ccnc1` (stereo partly drawn) [Example E34a, 4-(6-Amino-2,3-dihydro-1,1-dioxobenzothiophene-2-yl)butanoyl-Phe-Leu-ACHPA 3-(1-imidazolyl)propylamide]: the IC50 came to 12 nM.

As for `CC(C)C[C@H](NC(=O)[C@H](Cc1ccccc1)NC(=O)CC1CS(=O)(=O)c2cc(CN)ccc21)C(=O)N[C@@H](CC1CCCCC1)[C@@H](O)CC(=O)NCCCC(=O)O` (stereo partly drawn) [Example E37, (6-(Aminomethyl)-2,3-dihydro-1,1-dioxobenzothiophene-3-yl)acetyl-Phe-Leu-ACHPA-NH(CH₂)₃CO₂H .CF₃CO₂H], the IC50 turned out to be 44 nM.

Consider `CC(C)C[C@H](NC(=O)[C@H](Cc1ccccc1)NC(=O)CC1CS(=O)(=O)c2ccc(CN)cc21)C(=O)N[C@@H](CC1CCCCC1)[C@@H](O)CC(=O)NCCCn1ccnc1` (stereo partly drawn) [Example E43, (5-(Aminomethyl)-2,3-dihydro-1,1-dioxobenzothiophene-3-yl)acetyl-Phe-Leu-ACHPA 3-(1-imidazolyl)propylamide .3CF₃CO₂H.H₂O], for which the IC50 is 12 nM.

In the case of `CC(C)C[C@H](NC(=O)[C@H](Cc1ccccc1)NC(=O)CC1COc2ccc(CNCC(=O)O)cc21)C(=O)N[C@@H](CC1CCCCC1)[C@@H](O)CC(=O)NCCCn1ccnc1` (stereo partly drawn) [Example E44, (5- (Carboxymethylaminomethyl)-2,3-dihydrobenzofuran-3-yl)acetyl-Phe-Leu-ACHPA 3-(1-imidazolyl)propylamide .3(CF₃CO₂H)], the IC50 was found to be 48 nM.

As for `CC(C)C[C@H](NC(=O)[C@H](Cc1ccccc1)NC(=O)CCCC1Cc2ccccc2S1(=O)=O)C(=O)N[C@@H](CC1CCCCC1)[C@@H](O)CC(=O)NCCCn1ccnc1` (stereo partly drawn) [Example E50a, 4-(2,3-Dihydro-1,1-dioxobenzothiophene-2-yl)butanoyl-Phe-Leu-ACHPA 3-(1-imidazolyl)propylamide], the IC50 was found to be 14 nM.

Turning to `CC(C)C[C@H](NC(=O)[C@H](Cc1ccccc1)NC(=O)CC1CS(=O)(=O)c2cc(CN)ccc21)C(=O)N[C@@H](CC1CCCCC1)[C@@H](O)CC(=O)NCCCn1ccnc1` (stereo partly drawn) [Example E52, (6-(Aminomethyl)-2,3-dihydro-1,1-dioxobenzothiophene-3-yl)acetyl-Phe-Leu-ACHPA 3-(1-imidazolyl)propylamide .3(CF₃CO₂H)], the IC50 came to 20 nM.

Staying with this assay, now noted: read-out: IC₅₀; human plasma from healthy volunteers; angiotensin I difference between 37° and 4° incubation for 2h; linear regression of at least three concentrations.
Turning to `CC(C)C[C@H](NC(=O)[C@H](Cc1ccccc1)NC(=O)CC1CS(=O)(=O)c2cc(CNC(=O)OC(C)(C)C)ccc21)C(=O)N[C@@H](CC1CCCCC1)[C@@H](O)CC(=O)NCCCn1ccnc1` (stereo partly shown) [Example E51], the IC50 was 53 nM.
